Earlier results in US12297161B2, “Process for making sarecycline hydrochloride” (PARATEK PHARMACEUTICALS, INC., priority 2018, dated 2025).

Assays:
[1] = system: aerobic Gram-negative gastrointestinal (GI) organisms; conditions: compared with minocycline and doxycycline
[2] = in vivo

SMILES: CON(C)Cc1ccc(O)c2c1C[C@H]1C[C@H]3[C@H](N(C)C)C(O)=C(C(N)=O)C(=O)[C@@]3(O)C(O)=C1C2=O [Sarecycline, (4S, 4aS, 5aR, 12aS)-4-dimethylamino-3, 10, 12, 12a-tetrahydroxy-7-[(methoxy (methyl)amino)-methyl]-1, 11-dioxo-1,4,4a, 5,5a, 6, 11, 12a-octahydro-naphthacene-2-carboxylic acid amide]
- antibacterial activity against aerobic Gram-negative gastrointestinal (GI) organisms [1]: more limited activity against aerobic Gram-negative gastrointestinal (GI) organisms than minocycline and doxycycline
- inflammatory lesions of moderate to severe acne vulgaris [2]: reduce inflammatory lesions
